Tests used:
Assay in all cases: relative viability (nuclei count vs DMSO), 5 days (fraction); higher = more cells survive
DM3189 + OSI-027 = compound: C1CN(CCN1)C2=CC=C(C=C2)C3=CN4C(=C(C=N4)C5=CC=NC6=CC=CC=C56)N=C3 [DM3189] + COc1cccc2cc(-c3nc([C@H]4CC[C@H](C(=O)O)CC4)n4ncnc(N)c34)[nH]c12 [OSI-027] (partner 0.5 µM)
How it was run: (§1)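 Relative viability divides the nuclei count in treated wells by that in vehicle wells. Lung cancer cell lines were seeded in 1536-well plates, dosed by pin tool the next day, and fixed and stained after 5 days in one step with final 0.05% Triton X-100, 1% formaldehyde and 1 ug/ml Hoechst. Dosing was a single drug or a fixed anchor-drug dose plus five library-drug doses (not always all listed) in √10 steps, and values are medians of duplicate plates imaged at 4×.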

DM3189 + Phenformin = compound: C1CN(CCN1)C2=CC=C(C=C2)C3=CN4C(=C(C=N4)C5=CC=NC6=CC=CC=C56)N=C3 [DM3189] + N=C(N)NC(=N)NCCc1ccccc1 [Phenformin] (partner 250 µM)
How it was run: as §1

DM3189 + Foretinib = compound: C1CN(CCN1)C2=CC=C(C=C2)C3=CN4C(=C(C=N4)C5=CC=NC6=CC=CC=C56)N=C3 [DM3189] + COc1cc2c(Oc3ccc(NC(=O)C4(C(=O)Nc5ccc(F)cc5)CC4)cc3F)ccnc2cc1OCCCN1CCOCC1 [Foretinib] (partner 0.25 µM)
How it was run: as §1

DM3189 + Alpelisib = compound: C1CN(CCN1)C2=CC=C(C=C2)C3=CN4C(=C(C=N4)C5=CC=NC6=CC=CC=C56)N=C3 [DM3189] + Cc1nc(NC(=O)N2CCC[C@H]2C(N)=O)sc1-c1ccnc(C(C)(C)C(F)(F)F)c1 [Alpelisib] (partner 2 µM)
How it was run: as §1

DM3189 + Crizotinib = compound: C1CN(CCN1)C2=CC=C(C=C2)C3=CN4C(=C(C=N4)C5=CC=NC6=CC=CC=C56)N=C3 [DM3189] + C[C@@H](Oc1cc(-c2cnn(C3CCNCC3)c2)cnc1N)c1c(Cl)ccc(F)c1Cl [Crizotinib] (partner 1 µM)
How it was run: as §1

| Cell Line | relative viability (DM3189 + OSI-027; first compound 0.08 µM) | relative viability (DM3189 + OSI-027; first compound 0.253 µM) | relative viability (DM3189 + OSI-027; first compound 0.8 µM) | relative viability (DM3189 + OSI-027; first compound 2.53 µM) | relative viability (DM3189 + Phenformin; first compound 0.08 µM) | relative viability (DM3189 + Phenformin; first compound 0.253 µM) | relative viability (DM3189 + Phenformin; first compound 0.8 µM) | relative viability (DM3189 + Phenformin; first compound 2.53 µM) | relative viability (DM3189 + Foretinib; first compound 0.08 µM) | relative viability (DM3189 + Foretinib; first compound 0.253 µM) | relative viability (DM3189 + Foretinib; first compound 0.8 µM) | relative viability (DM3189 + Foretinib; first compound 2.53 µM) | relative viability (DM3189 + Alpelisib; first compound 0.08 µM) | relative viability (DM3189 + Alpelisib; first compound 0.253 µM) | relative viability (DM3189 + Alpelisib; first compound 2.53 µM) | relative viability (DM3189 + Crizotinib; first compound 0.08 µM) | relative viability (DM3189 + Crizotinib; first compound 0.253 µM) | relative viability (DM3189 + Crizotinib; first compound 2.53 µM) | relative viability (DM3189 + Alpelisib; first compound 0.8 µM) | relative viability (DM3189 + Crizotinib; first compound 0.8 µM) |
| --- | --- | --- | --- | --- | --- | --- | --- | --- | --- | --- | --- | --- | --- | --- | --- | --- | --- | --- | --- | --- |
| HCC-78 | 0.383 | 0.35 | 0.371 | 0.358 | 0.713 | 0.754 | 0.724 | 0.605 | 0.549 | 0.534 | 0.529 | 0.435 | 0.635 | 0.315 | 0.311 | 0.314 | 0.328 | 0.317 |  |  |
| HCC-366 | 0.888 | 0.856 |  | 0.808 | 0.531 | 0.611 |  | 0.605 | 0.939 | 0.975 |  | 0.936 | 0.417 | 0.436 | 0.423 | 0.475 | 0.574 | 0.771 | 0.167 | 0.372 |
| HCC-827 | 0.886 | 0.812 | 0.842 | 0.822 | 0.443 | 0.444 | 0.441 | 0.431 | 1.1 | 0.945 | 0.953 | 0.935 | 1.1 | 0.888 | 1.03 | 0.896 | 0.89 | 0.896 | 0.847 | 0.866 |
| HOP-62 | 1.02 | 0.852 | 0.817 | 0.871 | 0.691 | 0.722 | 0.6 | 0.682 | 1.05 | 1.07 | 1.04 | 1.16 | 1.29 | 1.11 | 0.911 | 1 | 0.866 | 0.75 | 0.773 | 0.939 |
| LC-2-ad | 0.801 | 0.784 | 0.726 | 0.87 | 0.689 | 0.531 | 0.533 | 0.584 | 1.08 | 0.926 | 0.931 | 0.992 | 0.822 | 0.76 | 0.71 | 0.419 | 0.458 | 0.378 | 0.857 | 0.382 |
| LCLC-97TM1 | 0.563 | 0.304 | 0.397 | 0.396 | 0.459 | 0.364 | 0.433 | 0.399 | 0.877 | 0.857 | 0.765 | 0.747 | 0.163 | 0.239 | 0.185 | 0.304 | 0.249 | 0.313 | 0.219 | 0.297 |
| LCLC-103H | 0.513 | 0.435 | 0.442 | 0.41 | 0.357 | 0.315 | 0.286 | 0.304 | 0.847 | 0.761 | 0.718 | 0.702 | 0.994 | 0.979 | 0.975 | 1.01 | 1.01 | 1.05 | 0.912 | 0.963 |
| LK-2 | 0.193 | 0.155 | 0.159 | 0.174 | 0.29 | 0.26 | 0.228 | 0.237 | 1.05 | 0.88 | 0.72 | 0.858 | 1.05 | 0.6 | 0.564 | 0.234 | 0.241 | 0.214 | 0.445 | 0.22 |
| LOU-NH91 | 0.869 | 0.719 | 0.681 | 0.801 | 0.886 | 0.689 | 0.706 | 0.747 | 1.08 | 0.942 | 0.891 | 0.96 | 0.765 | 0.702 | 0.683 | 0.754 | 0.709 | 0.727 | 0.668 | 0.718 |
| LU99A | 0.293 | 0.299 |  | 0.308 | 0.964 | 0.735 |  | 0.8 | 0.82 | 0.731 |  | 0.661 | 0.468 | 0.422 | 0.384 | 0.573 | 0.527 | 0.509 |  |  |
| LXF-289 | 1.01 | 0.747 | 0.746 | 0.891 | 0.529 | 0.491 | 0.501 | 0.527 | 0.982 | 0.963 | 0.987 | 1.02 | 1.03 | 1.03 | 1.14 | 0.796 | 0.793 | 0.947 | 1.01 | 0.781 |
| NCI-H522 | 0.796 | 0.695 | 0.685 | 0.828 | 0.675 | 0.591 | 0.592 | 0.617 |  |  |  |  |  |  |  |  |  |  |  |  |
| NCI-H1395 | 0.709 | 0.572 | 0.54 | 0.6 | 0.465 | 0.431 | 0.456 | 0.442 | 0.896 | 0.929 | 0.831 | 1.03 | 0.927 | 0.871 | 1.34 |  |  |  | 1.04 |  |
| NCI-H1650 | 0.715 | 0.658 | 0.468 | 0.524 | 0.5 | 0.347 | 0.387 | 0.354 | 1.04 | 1.18 | 1.21 | 1.12 |  |  |  | 0.896 | 0.851 | 0.717 |  | 1.15 |
| NCI-H1703 |  |  |  |  |  |  |  |  | 0.37 | 0.443 | 0.395 | 0.263 | 0.389 | 0.366 | 0.285 | 0.763 | 0.747 | 0.548 | 0.384 | 0.524 |
| NCI-H1792 | 0.585 | 0.703 | 0.661 | 0.839 | 0.275 | 0.267 |  | 0.458 |  |  |  |  | 0.545 | 0.682 | 0.401 | 0.861 | 0.992 | 0.441 | 0.624 | 0.887 |
| NCI-H1793 | 0.279 | 0.247 | 0.245 | 0.319 | 0.397 | 0.412 | 0.415 | 0.344 | 0.768 | 0.847 | 0.905 | 0.783 | 0.758 | 0.877 | 1.16 |  |  |  | 0.982 |  |
| NCI-H2342 | 0.658 | 0.626 | 0.622 | 0.552 | 0.625 | 0.594 | 0.595 | 0.498 | 1.08 | 0.912 | 1.08 | 0.965 |  |  |  |  |  |  |  |  |

From the supplement of paper PMC10307832
